Experimental data: patent US20160367623A1, “AGONISTS OF GUANYLATE CYCLASE USEFUL FOR THE TREATMENT OF GASTROINTESTINAL DISORDERS, INFLAMMATION, CANCER AND OTHER DISORDERS” (priority 2015, published 2016)
Bridge positions count the residues as written; N and C are the ends. Ends that are not written are not given here.

Tested on: patients with chronic idiopathic constipation (CIC)
Assay: Second phase 3 CIC trial: change from baseline in CSBMs/week
Format: in vivo, human
Conditions: MRA
[1] = Week 8, 6 mg, ITT Population-Excluding Duplicate Patients
[2] = Week 9, 3 mg, ITT Population-Excluding Duplicate Patients
[3] = Week 9, 6 mg, ITT Population-Excluding Duplicate Patients
[4] = Week 10, 3 mg, ITT Population-Excluding Duplicate Patients
[5] = Week 10, 6 mg, ITT Population-Excluding Duplicate Patients
[6] = Week 11, 3 mg, ITT Population-Excluding Duplicate Patients
[7] = Week 11, 6 mg, ITT Population-Excluding Duplicate Patients
[8] = Week 12, 3 mg, ITT Population-Excluding Duplicate Patients
[9] = Week 12, 6 mg, ITT Population-Excluding Duplicate Patients
[10] = overall average estimate across the 12-week treatment period, 3 mg, ITT Population
[11] = overall average estimate across the 12-week treatment period, 3 mg, ITT Population-Excluding Duplicate Patients
[12] = overall average estimate across the 12-week treatment period, 6 mg, ITT Population
[13] = overall average estimate across the 12-week treatment period, 6 mg, ITT Population-Excluding Duplicate Patients

Substance: Asn^1-Asp^2-Glu^3-Cys^4-Glu^5-Leu^6-Cys^7-Val^8-Asn^9-Val^10-Ala^11-Cys^12-Thr^13-Gly^14-Cys^15-Leu^16 (NDECELCVNVACTGCL; disulfide 4-12, 7-15) [Plecanatide, uroguanylin analogue, guanylate cyclase-C agonist; (C4:C12, C7:C15) bicycle peptide]
- Change from Baseline in CSBMs, Mean (SD) (Week 8, 6 mg, ITT Population): 2.36 (3.243) CSBMs/week
- Change from Baseline in CSBMs, Difference from Placebo [1]: 0.85 CSBMs/week
- Change from Baseline in CSBMs, LS Mean (SE) [1]: 2.35 (0.155) CSBMs/week
- Change from Baseline in CSBMs, Mean (SD) [1]: 2.37 (3.250) CSBMs/week
- Change from Baseline in CSBMs, Mean (SD) (Week 8, Active Combined, ITT Population-Excluding Duplicate Patients): 2.52 (3.510) CSBMs/week
- Change from Baseline in CSBMs, Mean (SD) (Week 8, Active Combined, ITT Population): 2.51 (3.498) CSBMs/week
- Change from Baseline in CSBMs, Difference from Placebo (Week 9, 3 mg, ITT Population): 0.94 CSBMs/week
- Change from Baseline in CSBMs, LS Mean (SE) (Week 9, 3 mg, ITT Population): 2.49 (0.156) CSBMs/week
- Change from Baseline in CSBMs, Mean (SD) (Week 9, 3 mg, ITT Population): 2.59 (3.459) CSBMs/week
- Change from Baseline in CSBMs, Difference from Placebo [2]: 0.95 CSBMs/week
- Change from Baseline in CSBMs, LS Mean (SE) [2]: 2.53 (0.159) CSBMs/week
- Change from Baseline in CSBMs, Mean (SD) [2]: 2.62 (3.479) CSBMs/week
- Change from Baseline in CSBMs, Difference from Placebo (Week 9, 6 mg, ITT Population): 0.81 CSBMs/week
- Change from Baseline in CSBMs, LS Mean (SE) (Week 9, 6 mg, ITT Population): 2.37 (0.154) CSBMs/week
- Change from Baseline in CSBMs, Mean (SD) (Week 9, 6 mg, ITT Population): 2.38 (3.176) CSBMs/week
- Change from Baseline in CSBMs, Difference from Placebo [3]: 0.81 CSBMs/week
- Change from Baseline in CSBMs, LS Mean (SE) [3]: 2.39 (0.156) CSBMs/week
- Change from Baseline in CSBMs, Mean (SD) [3]: 2.39 (3.184) CSBMs/week
- Change from Baseline in CSBMs, Mean (SD) (Week 9, Active Combined, ITT Population-Excluding Duplicate Patients): 2.50 (3.329) CSBMs/week
- Change from Baseline in CSBMs, Mean (SD) (Week 9, Active Combined, ITT Population): 2.48 (3.316) CSBMs/week
- Change from Baseline in CSBMs, Difference from Placebo (Week 10, 3 mg, ITT Population): 0.85 CSBMs/week
- Change from Baseline in CSBMs, LS Mean (SE) (Week 10, 3 mg, ITT Population): 2.49 (0.156) CSBMs/week
- Change from Baseline in CSBMs, Mean (SD) (Week 10, 3 mg, ITT Population): 2.63 (3.617) CSBMs/week
- Change from Baseline in CSBMs, Difference from Placebo [4]: 0.87 CSBMs/week
- Change from Baseline in CSBMs, LS Mean (SE) [4]: 2.52 (0.159) CSBMs/week
- Change from Baseline in CSBMs, Mean (SD) [4]: 2.65 (3.637) CSBMs/week
- Change from Baseline in CSBMs, Difference from Placebo (Week 10, 6 mg, ITT Population): 0.86 CSBMs/week
- Change from Baseline in CSBMs, LS Mean (SE) (Week 10, 6 mg, ITT Population): 2.50 (0.154) CSBMs/week
- Change from Baseline in CSBMs, Mean (SD) (Week 10, 6 mg, ITT Population): 2.51 (3.288) CSBMs/week
- Change from Baseline in CSBMs, Difference from Placebo [5]: 0.87 CSBMs/week
- Change from Baseline in CSBMs, LS Mean (SE) [5]: 2.52 (0.156) CSBMs/week
- Change from Baseline in CSBMs, Mean (SD) [5]: 2.51 (3.288) CSBMs/week
- Change from Baseline in CSBMs, Mean (SD) (Week 10, Active Combined, ITT Population-Excluding Duplicate Patients): 2.58 (3.458) CSBMs/week
- Change from Baseline in CSBMs, Mean (SD) (Week 10, Active Combined, ITT Population): 2.57 (3.449) CSBMs/week
- Change from Baseline in CSBMs, Difference from Placebo (Week 11, 3 mg, ITT Population): 0.96 CSBMs/week
- Change from Baseline in CSBMs, LS Mean (SE) (Week 11, 3 mg, ITT Population): 2.56 (0.157) CSBMs/week
- Change from Baseline in CSBMs, Mean (SD) (Week 11, 3 mg, ITT Population): 2.71 (3.710) CSBMs/week
- Change from Baseline in CSBMs, Difference from Placebo [6]: 0.99 CSBMs/week
- Change from Baseline in CSBMs, LS Mean (SE) [6]: 2.61 (0.159) CSBMs/week
- Change from Baseline in CSBMs, Mean (SD) [6]: 2.75 (3.728) CSBMs/week
- Change from Baseline in CSBMs, Difference from Placebo (Week 11, 6 mg, ITT Population): 0.80 CSBMs/week
- Change from Baseline in CSBMs, LS Mean (SE) (Week 11, 6 mg, ITT Population): 2.40 (0.155) CSBMs/week
- Change from Baseline in CSBMs, Mean (SD) (Week 11, 6 mg, ITT Population): 2.44 (3.276) CSBMs/week
- Change from Baseline in CSBMs, Difference from Placebo [7]: 0.79 CSBMs/week
- Change from Baseline in CSBMs, LS Mean (SE) [7]: 2.41 (0.156) CSBMs/week
- Change from Baseline in CSBMs, Mean (SD) [7]: 2.43 (3.266) CSBMs/week
- Change from Baseline in CSBMs, Mean (SD) (Week 11, Active Combined, ITT Population-Excluding Duplicate Patients): 2.58 (3.498) CSBMs/week
- Change from Baseline in CSBMs, Mean (SD) (Week 11, Active Combined, ITT Population): 2.57 (3.493) CSBMs/week
- Change from Baseline in CSBMs, Difference from Placebo (Week 12, 3 mg, ITT Population): 0.94 CSBMs/week
- Change from Baseline in CSBMs, LS Mean (SE) (Week 12, 3 mg, ITT Population): 2.60 (0.157) CSBMs/week
- Change from Baseline in CSBMs, Mean (SD) (Week 12, 3 mg, ITT Population): 2.76 (3.785) CSBMs/week
- Change from Baseline in CSBMs, Difference from Placebo [8]: 0.97 CSBMs/week
- Change from Baseline in CSBMs, LS Mean (SE) [8]: 2.64 (0.159) CSBMs/week
- Change from Baseline in CSBMs, Mean (SD) [8]: 2.78 (3.803) CSBMs/week
- Change from Baseline in CSBMs, Difference from Placebo (Week 12, 6 mg, ITT Population): 0.86 CSBMs/week
- Change from Baseline in CSBMs, LS Mean (SE) (Week 12, 6 mg, ITT Population): 2.51 (0.155) CSBMs/week
- Change from Baseline in CSBMs, Mean (SD) (Week 12, 6 mg, ITT Population): 2.57 (3.409) CSBMs/week
- Change from Baseline in CSBMs, Difference from Placebo [9]: 0.84 CSBMs/week
- Change from Baseline in CSBMs, LS Mean (SE) [9]: 2.51 (0.157) CSBMs/week
- Change from Baseline in CSBMs, Mean (SD) [9]: 2.56 (3.366) CSBMs/week
- Change from Baseline in CSBMs, Mean (SD) (Week 12, Active Combined, ITT Population-Excluding Duplicate Patients): 2.67 (3.585) CSBMs/week
- Change from Baseline in CSBMs, Mean (SD) (Week 12, Active Combined, ITT Population): 2.66 (3.596) CSBMs/week
- Change from Baseline in CSBMs, Difference from Placebo [10]: 0.90 CSBMs/week
- Change from Baseline in CSBMs, LS Mean (SE) [10]: 2.27 (0.135) CSBMs/week
- Change from Baseline in CSBMs, Difference from Placebo [11]: 0.91 CSBMs/week
- Change from Baseline in CSBMs, LS Mean (SE) [11]: 2.30 (0.137) CSBMs/week
- Change from Baseline in CSBMs, Difference from Placebo [12]: 0.79 CSBMs/week
- Change from Baseline in CSBMs, LS Mean (SE) [12]: 2.16 (0.133) CSBMs/week
- Change from Baseline in CSBMs, Difference from Placebo [13]: 0.79 CSBMs/week
- Change from Baseline in CSBMs, LS Mean (SE) [13]: 2.18 (0.135) CSBMs/week
